Reference: patent publication US6054460A, “Anticonvulsive and antiallergic/antiasthmatic pyrazolo-[3,4-d]pyrimidines, and process for preparing” (Arzneimittelwerk Dresden GmbH, priority 1998, dated 2000)
Where two headings read alike, the source gives them in different places.

Columns and labels:
maximal electroshock [1] = assay: Maximal electroshock (MES), anticonvulsive action, mouse i.p.; assay type: in vivo
Text: (§1) ^3) Mouse i.p.: MES = maximal electroshock, PTZ = s.c. pentetrazole
(§2) ^5) In % of the protected animals; n.t. = not tested

adenosine receptor (A3) = target: T1, adenosine receptor (A3) (Homo sapiens, UniProt P0DMS8); assay: Binding at the adenosine receptor (A3) and selectivities; conditions: for Ki: adenosine A3 receptor; for selectivity A3/A1: ratio A3/A1; for selectivity A3/A2: ratio A3/A2
T1 sequence (P0DMS8 1-318): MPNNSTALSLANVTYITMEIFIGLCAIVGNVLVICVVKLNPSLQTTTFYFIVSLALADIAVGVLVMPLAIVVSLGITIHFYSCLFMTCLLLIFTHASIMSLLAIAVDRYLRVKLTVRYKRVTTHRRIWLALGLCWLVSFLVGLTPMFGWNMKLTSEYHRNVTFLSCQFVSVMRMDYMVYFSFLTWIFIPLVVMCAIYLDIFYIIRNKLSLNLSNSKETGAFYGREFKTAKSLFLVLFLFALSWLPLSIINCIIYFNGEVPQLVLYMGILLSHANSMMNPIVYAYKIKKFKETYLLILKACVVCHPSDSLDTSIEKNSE

[2] = Octanol/water partition coefficient
s.c. pentetrazole = s.c. pentetrazole (PTZ), anticonvulsive action, mouse i.p.; assay type: in vivo; conditions: ip, read-out: Action, PTZ (protected animals)
Text: as §1, §2

maximal electroshock [3] = assay: Maximal electroshock, anticonvulsive action, rat p.o.; assay type: in vivo; conditions: for ED50: po, maximal electroshock
Text: Week-blad, Sc. Ed. 14, 132 (1992) and Antiepileptic Drugs, Third Ed., Raven Press, New York 1989.
(§3) Analogous results were obtained for the orally administered tests.

in vivo = conditions: rat, po
Text: as §3

[4] = test system: eosinophilic granulocytes; assay: Inhibition of infiltration of eosinophilic granulocytes into the lungs (BAL, ovalbumin-challenged guinea-pigs, oral); assay type: in vivo, guinea-pig (Dunkin Hartley Shoe); conditions: guinea-pig, 100 mg/kg, 2 hours before allergen challenge
Method: The compounds of the present invention were tested in vivo for antiasthmatic action after oral administration to male guinea-pigs, and the inhibition of the infiltration of the eosinophilic granulocytes into the lungs was determined. Male guinea-pigs (Dunkin Hartley Shoe) weighing 200-250 g were actively sensitized by an s.c. injection of ovalbumin (10 μg+1 mg of aluminum hydroxide) and boosted 2 weeks later. One week after boosting with ovalbumin, the animals were challenged with an aerosol of 0.5% strength ovalbumin solution for 20-30 sec. 24 hours later, a bronchoalveolar lavage (BAL) was carried out in the animals under urethane anaesthesia using 2×5 ml of saline solution. The lavage fluid was collected and centrifuged at 400×g for 10 min and the cell pellets were suspended in 1 ml of saline solution. The eosinophilic granulocytes were counted microscopically in a Neubauer chamber. A Becton Dickinson test kit (No. 5877) for eosinophils was used for staining. The test kit used phloxine B as a selective stain for eosinophils. The eosinophils in the BAL were counted for each animal and the eosinophils were calculated in millions/animal. The test substances were administered orally 2 hours before allergen challenge.
The percentage inhibition of eosinophilia of the group treated with substance is calculated according to the following formula:
(A-C)-(B-C)/(A-C)×100=% inhibition […]

[5] = ip, mouse i.p., 100 mg/kg, read-out: Action, MES (protected animals)
[6] = ip, mouse i.p., read-out: Action, MES (protected animals)

Compound | responders at 100 mg/kg (maximal electroshock [1]; [5]) [%] | Ki (adenosine receptor (A3)) [nM] | selectivity A3/A1 (adenosine receptor (A3)) | selectivity A3/A2 (adenosine receptor (A3)) | logP [2] | responders at 30 mg/kg (maximal electroshock [1]; [6]) [%] | responders at 100 mg/kg (s.c. pentetrazole; mouse i.p., 100 mg/kg) [%] | further results
2-benzyl-pyrazolo-[3,4-d]-pyrimidine [reference compound] | – | – | – | – | – | – | – | Action, MES (protected animals) (maximal electroshock [1]; mouse i.p., 100 mg/kg): 100%; Log P (octanol/water partition coefficient): 0.40
S=c1[nH]cnc2nn(Cc3ccccc3I)cc12 [Example 17, 2-(2-iodobenzyl)pyrazolo[3,4-d]pyrimidine-4(5H)-thione] | 30 | 500 | 0.008 | < 0.001 | 1.4 | – | – | –
O=c1[nH]cnc2nn(Cc3cccc(C(F)(F)F)c3)cc12 [Example 7, 2-(3-trifluoromethylbenzyl)pyrazolo[3,4-d]pyrimidin-4(5H)-one] | – | – | – | – | 1 | 100 | 60 | –
O=c1[nH]cnc2nn(Cc3ccccc3C(F)(F)F)cc12 [Example 5, 2-(2-trifluoromethylbenzyl)pyrazolo[3,4-d]pyrimidin-4(5H)-one] | – | 790 | 0.002 | 0.007 | 1.08 | 100 | – | responders at 30 mg/kg (s.c. pentetrazole; mouse i.p.): 20%
O=c1[nH]cnc2nn(Cc3ccccc3I)cc12 [Example 4, 2-(2-iodobenzyl)pyrazolo[3,4-d]pyrimidin-4(5H)-one] | – | 490 | 0.008 | < 0.0005 | 0.74 | – | – | responders at 300 mg/kg (maximal electroshock [1]; ip, mouse i.p., 300 mg/kg, read-out: Action, MES (protected animals)): 100%
O=c1[nH]cnc2nn(Cc3cc4c(cc3Cl)OCO4)cc12 [Example 13, 2-(2-chloro-4,5-methylenedioxybenzyl)pyrazolo[3,4-d]pyrimidin-4(5H)-one] | 30 | 8300 | 0.4 | 0.02 | 1.21 | – | – | –
O=c1[nH]cnc2nn(Cc3c(F)cccc3F)cc12 [Example 8, 2-(2,6-difluorobenzyl)pyrazolo[3,4-d]pyrimidin-4(5H)-one] | – | – | – | – | 0.18 | 100 | – | responders at 30 mg/kg (s.c. pentetrazole; mouse i.p.): 40%
NC(=O)N1c2ccccc2C=Cc2ccccc21 [Carbamazepine, reference compound] | 100 | – | – | – | – | – | 0 | –
S=c1[nH]cnc2nn(Cc3ccccc3Br)cc12 [Example 16, 2-(2-bromobenzyl)pyrazolo[3,4-d]pyrimidine-4(5H)-thione] | 30 | 340 | 0.005 | < 0.001 | 1.2 | – | – | –
Cc1ccccc1Cn1cc2c(=O)[nH]cnc2n1 [Example 6, 2-(2-methylbenzyl)pyrazolo[3,4-d]pyrimidin-4(5H)-one] | – | 4000 | 0.01 | 0.08 | 0.75 | 100 | 20 | –
O=c1[nH]cnc2nn(Cc3c(Cl)cccc3Cl)cc12 [Example 10, 2-(2,6-dichlorobenzyl)pyrazolo[3,4-d]pyrimidin-4(5H)-one] | 60 | 1600 | 0.02 | 0.02 | 1.16 | – | – | –
O=c1[nH]cnc2nn(Cc3ccc(Cl)cc3Cl)cc12 [Example 11, 2-(2,4-dichlorobenzyl)pyrazolo[3,4-d]pyrimidin-4(5H)-one] | 100 | 710 | 0.04 | 0.01 | 1.68 | – | 20 | –
FC(F)(F)c1ccccc1Cn1cc2c(=S)[nH]cnc2n1 [Example 18, 2-(2-trifluoromethylbenzyl)pyrazolo[3,4-d]pyrimidine-4(5H)-thione] | 100 | – | – | – | 1.6 | – | 80 | –
O=c1[nH]cnc2nn(Cc3ccccc3F)cc12 [Example 1, 2-(2-fluorobenzyl)pyrazolo[3,4-d]pyrimidin-4(5H)-one] | – | 3200 | 0.7 | 0.01 | 0.2 | 100 | 100 | –
CCCC(CCC)C(=O)O [Valproate, reference compound] | – | – | – | – | – | – | – | responders at 100 mg/kg (maximal electroshock [1]; Mus musculus, ip, read-out: Action, MES (protected animals)): 0%; responders at 100 mg/kg (s.c. pentetrazole; Mus musculus): 30%
O=c1[nH]cnc2nn(Cc3ccccc3Cl)cc12 [Example 2, 2-(2-chlorobenzyl)pyrazolo[3,4-d]pyrimidin-4(5H)-one] | 100 | 2000 | 0.02 | 0.06 | 1.01 | – | 60 | ED50 (maximal electroshock [3]): 32 mg/kg; TD50 (in vivo): > 250 mg/kg
O=c1[nH]cnc2nn(Cc3ccccc3Br)cc12 [Example 3, 2-(2-bromobenzyl)pyrazolo[3,4-d]pyrimidin-4(5H)-one] | 100 | 430 | 0.008 | 0.005 | 0.56 | – | – | responders at 300 mg/kg (s.c. pentetrazole; mouse i.p.): 80%; % inhibition of infiltration of eosinophilic granulocytes into the lung [4]: 74%
Fc1cccc(F)c1Cn1cc2c(=S)[nH]cnc2n1 [Example 19, 2-(2,6-difluorobenzyl)pyrazolo[3,4-d]pyrimidine-4(5H)-thione] | – | – | – | – | 1.57 | 100 | 60 | –
O=c1[nH]cnc2nn(Cc3c(F)cccc3Cl)cc12 [Example 9, 2-(2-chloro-6-fluorobenzyl)pyrazolo[3,4-d]pyrimidin-4(5H)-one] | – | 1000 | 0.002 | 0.004 | 0.93 | 100 | – | –
COc1ccc(Cn2cc3c(=O)[nH]cnc3n2)cc1 [Example 12, 2-(4-methoxybenzyl)pyrazolo[3,4-d]pyrimidin-4(5H)-one] | 15 | 9800 | 0.5 | 0.01 | 0.62 | – | – | responders at 300 mg/kg (s.c. pentetrazole; mouse i.p.): 40%
S=c1[nH]cnc2nn(Cc3ccccc3Cl)cc12 [Example 15, 2-(2-chlorobenzyl)pyrazolo[3,4-d]pyrimidine-4(5H)-thione] | 100 | 500 | 0.007 | < 0.001 | 1.54 | – | 60 | ED50 (maximal electroshock [3]): 12 mg/kg; anticonvulsive action, in words (maximal electroshock [3]; qualitative): strongly anticonvulsive; TD50 (in vivo): > 460 mg/kg; therapeutic breadth, in words (in vivo): great therapeutic breadth
